# Results reported in patent US6693126B2, “Dihydroxyphenyl derivatives for hepatoprotection and treatment of liver diseases” (Choongwae Pharm. Co., Ltd., priority 2000, dated 2004).
# Experiments:
# [1] = test system: Liver Injuries caused by Carbon Tetrachloride in Mice; test: Inhibitory effect against liver injuries caused by carbon tetrachloride in mice; assay type: in vivo, mice (ICR, male); conditions: CCl4 i.p., serum 24 h
# Description: (§1) The carbon tetrachloride model(see, Philippe letteron et al., Biochemical Pharmacology, 39, 12, 2027-2034, 1990; Tips, 10, 1989; Kyoichi Kagawa et al., Japan J. Pharmacol., 42, 19-26, 1986; K. T. Liu and P. Lesca, Chem. Biol. Interactions, 41, 39-47, 1982; Richard O. et al., J. Biological Chemistry, 236, 2, 1961) is used most generally. This model has been established based on the internal phenomena that carbon tetrachloride is converted by cytochrome P-450 to a toxic free radical trichloromethyl(CCl3.), this radical is strongly bound to a thiol group of membrane protein on microsome of liver to form a lipid radical, which is then converted to a peroxy radical in the presence of oxygen to facilitate the peroxidation reaction of membrane lipid. That is, carbon tetrachloride suppresses protein biosynthesis in the liver, induces the increase of ALT and AST values in blood, and further causes histologically the centrilobular necrosis of the liver.
# (§2) The degree of liver damage in the experimental animals was determined by measuring ALT and AST values in blood(see, Biol. Pharm. Bull., 20, 4, 381-385, 1997; Toxicology and Applied Pharmacology, 95, 1-11, 1988), and the hepatoprotective activity was calculated based on the following formula(see, Planta Medica, 55, 127-132, 1989). At this time, the hepatoprotective activity can also be calculated based on the same formula by replacing ALT value with AST value. [formula]
# (§3) The hepatoprotective effect of the compound of the present invention was identified according to a known procedure(see, Philippe letteron et al., Biochemical Pharmacology, 39, 12, 2027-2034, 1990), and the protocol may be described in brief as follows.
# (§4) Rats(SD, male, 180˜200 g) and mice(ICR, male, 27-35 g) used in the test were allowed in a condition of temperature 22±1° C. and relative humidity 60±5%. Feed and water were provided with no restriction while light and darkness were changed at an interval of 12 hours.
# (§5) […] […] Each group included 8 test animals, and the test compound was orally administered once per animal. After 30 minutes(rat) or 1 hour(mouse) from the administration of the test compound, 10% carbon tetrachloride in corn oil solution was intraperitoneally injected in doses of 2 ml/kg in rats and 0.15 ml/kg in mice. As the control compounds, silymarin and DDB were selected.
# (§6) The test animals were provided with no feed and sufficient water for 24 hours from the administration of carbon tetrachloride. […] This blood was centrifuged to obtain sera. ALT and AST values in the sera were measured using blood chemistry analyzer(Vitalab, Selectra II, Merck). The statistical significance for the test result of each group was examined based on Student's t-test, and the result was recognized as having a statistical significance when its P value is less than 5%.
# [2] = test system: Liver Injuries caused by Thioacetamide in Mice; test: Inhibitory effect against liver injuries caused by thioacetamide in mice; assay type: in vivo, Mice (ICR, male); conditions: thioacetamide i.p., dose 50 mg/kg p.o. once, serum 24 h
# Description: The hepatoprotective effect of the compound of formula (1) was also identified by thioacetamide model(see, Masuda Yasusuke and Nakayama Nobue, Biochemical Pharmacology, 31, 17, 2713-2725, 1982; Liu Jie et al., Acta Pharmacologica Sinica, 16, 2, 97-102, 1995; Story D. L. et al., J. Tox. Environ. Health, 11, 483-501, 1983; Gomez-Lechon M. J. et al., Xenobiotica, 18, 6, 725-735, 1988) which is frequently used as an experimental model for liver injuries. This model has been established based on the phenomena that thioacetamide activated by P-450 S-oxidation inordinately increases the influx of calcium ion(Ca^++) into the liver cells, which in turn activates calcium ion-dependent phospholipase, protease and endonuclease, changes the cell frame through the calcium ion, exhausts ATP, and consequently destroys the liver cells. Thioacetamide also damages ureogenesis pathway in liver, and the metabolite of thioacetamide inhibits the transfer of RNA and makes the liver cell membranes unstable. A series of these activities results in the destruction of the liver cells, which in turn causes the increase of ALT and AST values in blood and also causes histologically the centrilobular necrosis.
# as §2
# The hepatoprotective effect of the compound of the present invention was identified according to a known procedure(see, Landon, E. J. et al., Biochemical Pharmacology, 35, 4, 697-705, 1986), and the protocol may be described in brief as follows.
# (§7) Mice(ICR, male, 27˜35 g) as the test animal were allowed in a condition of temperature 22±1° C. and relative humidity 60±5%. Feed and water were provided with no restriction while light and darkness were changed at an interval of 12 hours.
# The compound of the present invention was suspended in a solvent corn oil, and this suspension was administered in a dose of 10 ml/kg. Each group included 8 test animals, and the test compound was orally administered once per animal. After 1 hour from the administration of the test compound, thioacetamide solution(concentration: 90 mg/ml) in physiological saline was intraperitoneally injected in a dose of 1 ml/kg. As the control compounds, silymarin and DDB were selected.
# as §6, with “thioacetamide.” for “carbon tetrachloride.”
# [3] = test system: Fulminant Liver Injuries caused by D-galactosamine/lipopolysaccharide in Mice; test: Inhibitory effect against fulminant liver injuries caused by D-galactosamine/lipopolysaccharide in mice (survival); assay type: in vivo, Mice (ICR, male); conditions: D-galactosamine 800 mg/kg + lipopolysaccharide 10 μg/kg i.p., dose 50 mg/kg oral once, observed 24 hours
# Description: Further, the D-galactosamine/lipopolysaccharide model(see, Chris Galanos et al., Proc. Natl. Acad. Sci. USA, 76, 11, 5939-5943, 1979; Koji Hase et al., Biol. Pharm. Bull., 20, 4, 381-385, 1997; Junichi Nagakawa et al., The Journal of Pharmacology and Experimental Therapeutics, 264, 1, 1992; Nolan J. D., Hepatology, 1, 458-465, 1981; Wendel A., Methods Enzymol., 186, 675-680, 1990) which is also used in the present invention for the identification of hepatoprotective effect is based on the phenomena that liver injuries are caused by immune responses in mouse. It has been reported that such kind of liver injuries are caused not by direct tissue lesions due to the chemicals but by secretion of tumor necrosis factor(TNF)-α, reactive oxygen, etc.(see, Hishinuma I. et al., Hepatology, 12, 1187-1191, 1990, Hase K. et al., Phytother. Res., 10, 387-392, 1996). Here, D-galactosamine supresses protein biosynthesis and as well highly increases the sensitivity of the liver cells for lipopolysaccharide by reducing uridine nucleotide.
# The hepatoprotective effect of the compound of the present invention was identified according to a known procedure(see, Koji Hase et al., Biol. Pharm. Bull., 20, 4, 381-385, 1997), and the protocol may be described in brief as follows.
# as §7
# The compound of the present invention was suspended in a solvent corn oil, and this suspension was administered in a dose of 10 ml/kg. Each group included 10 test animals, and the test compound was orally administered once per animal. After 1 hour from the administration of the test compound, D-galactosamine and lipopolysaccharide each of which dissolved in physiological saline were intraperitoneally injected at the same time in doses of 800 mg/kg and 10 μg/kg, respectively. As the control compounds, SY-640[N-methyl-N-(3,4-methylenedioxyphenacyl)acetamide; EP0350251], silymarin and DDB were selected.
# The statistical significance for the test result of each group was examined based on Student's t-test, and the result was recognized as having a statistical significance when its P value is less than 5%.
# [4] = test system: Liver Injuries caused by Carbon Tetrachloride in Rats; test: Inhibitory effect against liver injuries caused by carbon tetrachloride in rats; assay type: in vivo, Rats (SD, male); conditions: CCl4 i.p., serum 24 h
# Description: as §1, §2, §3, §4, §5, §6
SMILES,Inhibitory Effect against Liver Injuries (%) ALT ([1]; dose 1.9 mg/kg p.o. once) [%],Inhibitory Effect against Liver Injuries (%) ALT ([1]; dose 5.6 mg/kg p.o. once) [%],Inhibitory Effect against Liver Injuries (%) ALT ([1]; dose 16.7 mg/kg p.o. once) [%],Inhibitory Effect against Liver Injuries (%) ALT ([1]; dose 50 mg/kg p.o. once) [%],Inhibitory Effect against Liver Injuries (%) ALT [2] [%],Survival Rate (%) [3] [%],Inhibitory Effect against Liver Injuries (%) ALT ([4]; dose 1.9 mg/kg p.o. once) [%],Inhibitory Effect against Liver Injuries (%) ALT ([4]; dose 5.6 mg/kg p.o. once) [%],Inhibitory Effect against Liver Injuries (%) ALT ([4]; dose 16.7 mg/kg p.o. once) [%],Inhibitory Effect against Liver Injuries (%) ALT ([4]; dose 50 mg/kg p.o. once) [%]
"C(=N\OCc1ccccn1)/c1ccc2c(c1)OCO2 [Compound 9, 1-[(2-pyridyl)methoxy]-1-aza-2-benzo[3,4-d]1,3-dioxolan-5-ylethene]",64,64,87,98,29,90,61,60,56,75
"CC(=O)N(C)CC(=O)c1ccc2c(c1)OCO2 [SY-640, N-methyl-N-(3,4-methylenedioxyphenacyl)acetamide, reference compound]",–,–,–,–,–,90,–,–,–,–
